Assay results reported in US20230338250A1, “Compositions Comprising One or More (Bio)-Alkanediols with Active Ingredients” (Symrise AG, priority 2020, published 2023).

Assay: Example 1.2 solubility improvement for Hydrocortisone with 1,2-alkanediols: visual appearance
Type: physicochemical
Conditions: 0.2 % Hydrocortisone; 1.0 % 1,2-alkanediol; after 3 days 23° C.
Procedure: Production method: A premix B was prepared by mixing solvent, solubilizer and diol. Hydrocortisone was added. The mixture was heated to 70° C. to solve the active component while stirring with a magnetic stirrer. The mixture was stirred for further 5 minutes at 70° C. Water was added and the mixture was cooled while stirring (10 min).
The visual appearance of the sample solutions was evaluated according to the following scale:
The images of the sample solutions A (containing 1,2-pentanediol), B (containing 1,2-hexanediol), C (containing 1,2-heptanediol) and D (containing 1,2-octanediol) are shown in FIG. 3.

| Structure (SMILES) | crystallization/sedimentation, transparency, turbidity compared between samples |
| --- | --- |
| CCCCCC(O)CO (stereo not drawn) [1,2-heptanediol] | better solubility improving properties |

Assay: Example 2 solubility of alkanediols in water (maximum water solubility, visual observation)
Type: physicochemical
Conditions: assessed at ambient temperature after 24 h storage at 5° C.
Excerpt: The water solubility of a substance is the saturation mass concentration of the substance in water at a given temperature. The determination of the solubility in water relates to essentially pure substances which are stable in water and not volatile.
For the determination of the maximum water solubility of an alkanediol, water and different concentrations of the respective alkanediol were blended by stirring. […] The determination of whether the alkanediol has dissolved in water is based entirely on visual observation.

| Structure (SMILES) | Maximum solubility in water (% by weight) |
| --- | --- |
| CCCCCC(O)CO (stereo not drawn) [1,2-heptanediol] | 2.5 |
| CCCCCCCC(O)CO (stereo not drawn) [1,2-nonanediol] | 0.1 |
| CCCCC(O)C(C)O (stereo not drawn) [2,3-heptanediol] | 3.6 |
| CCCCCCC(O)C(C)O (stereo not drawn) [2,3-nonanediol] | 0.3 |
| CCCCCC(O)C(C)O (stereo not drawn) [2,3-octanediol] | 1.5 |
| CCCC(O)CO (stereo not drawn) [Hydrolite® 5 green, 1,2-pentanediol] | 50 |
| CCCCC(O)CO (stereo not drawn) [Hydrolite® 6, 1,2-hexanediol] | 50 |
| CCCCCCC(O)CO (stereo not drawn) [Hydrolite® 8, 1,2-octanediol] | 0.5 |
